Data as given in patent US11319303B2 (WIGEN BIOMEDICINE TECHNOLOGY (SHANGHAI) CO., LTD., priority 2017, dated 2022).
Structures can show the parent of a compound that is named as a salt.

molecular target: LC3B (Homo sapiens, UniProt Q9GZQ8); test: Fluorescence Polarization (FP) Assay: displacement of FITC-labeled peptide from GST-LC3B; assay type: binding; conditions: Fluorescence Polarization assay; GST-LC3B 180 nM, FITC-labeled peptide 18 nM, 25° C.; read-out: IC50
Method: The compounds of the present invention for regulating the autophagy-related protein LC3B were tested by Fluorescence Polarization (FP) Assay.
Fluorescence Polarization (FP) Assay Test

SMILES	IC50 [µM]
CC(O)=C1C(=O)CC(c2ccccc2)CC1=O (stereo not drawn) [Compound 449, 2-(1-hydroxyethylidene)-5-phenylcyclohexane-1,3-dione]	15 to 100
O=C1CC(c2cccs2)CC(=O)C1=CO (stereo not drawn) [Compound 453, 2-(hydroxy-methylene)-5-(2-thiophen)cyclo-hexane-1,3-dione lithium salt]	3 to 15
O=C1CC(c2cccs2)CC(=O)C1=CO (stereo not drawn) [Compound 455, 2-(hydroxy-methylene)-5-(2-thiophen)cyclo-hexane-1,3-dione potassium salt]	3 to 15
O=C1CC(c2ccsc2)CC(=O)C1=CO (stereo not drawn) [Compound 456, 2-(hydroxy-methylene)-5-(3-thiophen)cyclo-hexane-1,3-dione lithium salt]	3 to 15
O=C1CC(c2ccsc2)CC(=O)C1=CO (stereo not drawn) [Compound 457, 2-(hydroxy-methylene)-5-(3-thiophen)cyclo-hexane-1,3-dione sodium salt]	3 to 15
O=C1CC(c2ccsc2)CC(=O)C1=CO (stereo not drawn) [Compound 458, 2-(hydroxy-methylene)-5-(3-thiophen)cyclo-hexane-1,3-dione potassium salt]	3 to 15

Now from value to compound:

IC50 [µM]	SMILES
15 to 100	O=C1CCN(c2ccccc2)C(=O)/C1=C\O [Compound 450, 3-(hydroxymethylene)-N-phenylpiperidine-2,4-dione]
3 to 15	O=C1CC(c2ccccc2)C(F)C(=O)/C1=C/O (stereo not drawn) [Compound 451, 2-(hydroxymethylene)-4-fluoro-5-(phenyl)cyclohexane-1,3-dione]
3 to 15	O=C1CC(c2ccccc2)C(F)(F)C(=O)/C1=C/O (stereo not drawn) [Compound 452, 2-(hydroxymethylene)-4,4-difluoro-5-(phenyl)cyclohexane-1,3-dione]
< 3	O=C1CC(c2cccc3[nH]ccc23)CC(=O)C1=CO (stereo not drawn) [Compound 459, 2-(hydroxy-methylene)-5-(1H-indol-4-yl)cyclo-hexane-1,3-dione lithium salt]
< 3	O=C1CC(c2cccc3[nH]ccc23)CC(=O)C1=CO (stereo not drawn) [Compound 460, 2-(hydroxy-methylene)-5-(1H-indol-4-yl)cyclo-hexane-1,3-dione sodium salt]
< 3	O=C1CC(c2cccc3[nH]ccc23)CC(=O)C1=CO (stereo not drawn) [Compound 461, 2-(hydroxy-methylene)-5-(1H-indol-4-yl)cyclo-hexane-1,3-dione potassium salt]
